Some test systems named below: MV4-11; MOLM-13; M07e; CMK; CHRF288-11; U937; CMS; ML-2.
What all share (set-up): species or system AML cell lines (8); Primary HTS, single concentration about 10 uM, Cell Titer Glo viability; log10 luminescence, per cent inhibition relative to cycloheximide control
Conditions in all cases: 72 h, relative to cycloheximide control, log10 luminescence, inhibitor

Structures can show the parent of a compound that is named as a salt. Where two headings read alike, the source gives them in different places.

Consider 17 compounds from paper PMC6522510 (Nature Communications, 2019).

As for `Fc1ccc(-c2nn3ncccc3c2-c2ccnc(Nc3ccc4c(c3)OCCO4)n2)cc1` [SJ000573081-1, U18020/136/2], the MV4-11 %inh in the experiment with MV4-11 is recorded as 14.42%. The MOLM-13 %inh in the experiment with MOLM-13 stood at 1.143%. In the experiment with M07e, the M07e %inh is reported as 1.748%. Moreover, the CMK %inh in the experiment on CMK turned out to be 3.915%. In addition, in the experiment with CHRF288-11, the CHRF288-11 %inh came out at 0.4339%. Besides, the U937 %inh in the experiment with U937 was 35.33%. Moreover, the CMS %inh with CMS came to 13.71%. In the experiment on ML-2, the ML-2 %inh was -1.741%.
As to `COc1ccc(OC)c(C2=C(c3cn(C)c4ccccc34)C(=O)NC2=O)c1` [SJ000581081-1], in the experiment with MV4-11, the MV4-11 %inh amounted to 1.033%. Moreover, the MOLM-13 %inh in the experiment on MOLM-13 is on record as -2.282%. In addition, in the experiment on M07e, the M07e %inh was determined as 2.921%. In addition, in the experiment on CMK, the CMK %inh was 3.003%. In addition, in the experiment with CHRF288-11, the CHRF288-11 %inh is listed as 7.567%. The U937 %inh in the experiment on U937 was -0.9957%. For the same compound, in the experiment on CMS, the CMS %inh amounted to 0.8246%. Moreover, in the experiment on ML-2, the ML-2 %inh was -0.4206%.
As to `C/C(O)=C(\C#N)C(=O)Nc1ccc(C(F)(F)F)cc1` [SJ000556684-2, TERIFLUNOMIDE], the MV4-11 %inh in the experiment on MV4-11 is on record as 2.233%. The MOLM-13 %inh in the experiment on MOLM-13 was 8.514%. Moreover, the M07e %inh in the experiment on M07e is given as 0.1279%. The CMK %inh in the experiment on CMK stood at 2.602%. In the experiment with CHRF288-11, the CHRF288-11 %inh stood at 13.26%. Further, the U937 %inh with U937 is recorded as -0.6256%. The CMS %inh in the experiment with CMS amounted to 4.451%. In the experiment on ML-2, the ML-2 %inh was 6.049%.
As to `CC(C)Nc1ncc2cc(Oc3ccc(F)cc3F)c(=O)n(C)c2n1` [SJ000581145-1], the MV4-11 %inh in the experiment on MV4-11 is reported as 3.959%. Also, the MOLM-13 %inh in the experiment on MOLM-13 came out at 2.517%. In addition, the M07e %inh in the experiment with M07e turned out to be 6.769%. The CMK %inh in the experiment on CMK came out at 7.64%. In addition, in the experiment with CHRF288-11, the CHRF288-11 %inh is on record as -0.5311%. Further, the U937 %inh in the experiment on U937 is reported as 2.438%. Further, the CMS %inh in the experiment on CMS is reported as 3.456%. Besides, in the experiment on ML-2, the ML-2 %inh came out at 0.005285%.
On to `Cn1cc(C2=C(c3c([S+](C)[O-])n(C)c4ccccc34)C(=O)NC2=O)c2ccccc21` (stereo not shown) [SJ000581040-1], for which the MV4-11 %inh in the experiment with MV4-11 came to 0.5816%. Moreover, the MOLM-13 %inh in the experiment on MOLM-13 was -1.878%. In addition, in the experiment with M07e, the M07e %inh is 1.342%. Moreover, the CMK %inh in the experiment on CMK is -2.072%. The CHRF288-11 %inh with CHRF288-11 is 12.43%. Besides, the U937 %inh in the experiment with U937 was 0.5237%. Also, the CMS %inh in the experiment with CMS is 0.8019%. Moreover, the ML-2 %inh in the experiment on ML-2 came to 2.43%.
With `CCC1(CC)C(=O)NC(=O)N(C)C1=O` [SJ000562691-1, METHARBITAL], the MV4-11 %inh in the experiment with MV4-11 is given as 0.7749%. In the experiment with MOLM-13, the MOLM-13 %inh was -1.73%. In addition, the M07e %inh in the experiment with M07e is reported as -1.141%. Also, in the experiment with CMK, the CMK %inh is listed as -5.926%. The CHRF288-11 %inh in the experiment on CHRF288-11 worked out at 3.211%. Besides, the U937 %inh in the experiment on U937 was -1.698%. Besides, the CMS %inh in the experiment on CMS is reported as -4.139%. Also, the ML-2 %inh with ML-2 was -0.4535%.
Turning to `CC(=O)Nc1nnc(S(N)(=O)=O)s1` [SJ000285803-7, ACETAZOLAMIDE], in the experiment with MV4-11, the MV4-11 %inh came out at 1.807%. The MOLM-13 %inh in the experiment on MOLM-13 turned out to be 3.554%. In the experiment on M07e, the M07e %inh is listed as -1.461%. In addition, in the experiment on CMK, the CMK %inh was found to be 2.601%. Besides, in the experiment with CHRF288-11, the CHRF288-11 %inh came out at 0.8463%. For the same compound, the U937 %inh in the experiment with U937 is -0.874%. Also, the CMS %inh in the experiment on CMS came out at 0.5025%. Further, in the experiment with ML-2, the ML-2 %inh is on record as -2.151%.
For the compound `Cn1cc(C2=C(c3cn(CCCCN)c4ccccc34)C(=O)NC2=O)c2ccccc21` [SJ000580952-1], the MV4-11 %inh in the experiment on MV4-11 is 8.937%. Besides, in the experiment on MOLM-13, the MOLM-13 %inh turned out to be 4.295%. In addition, the M07e %inh in the experiment with M07e is -0.5312%. Besides, the CMK %inh in the experiment with CMK was 13.68%. Moreover, the CHRF288-11 %inh in the experiment on CHRF288-11 came to 13.76%. In the experiment with U937, the U937 %inh amounted to 11.79%. Besides, in the experiment on CMS, the CMS %inh was 1.981%. Further, the ML-2 %inh in the experiment on ML-2 turned out to be 4.061%.
With `COc1cc(/C=N/Nc2ncnc3[nH]ncc23)ccc1O` [SJ000573263-1, U15117/8/1], the MV4-11 %inh with MV4-11 is 32.98%. The MOLM-13 %inh in the experiment with MOLM-13 is recorded as 34.62%. Further, the M07e %inh with M07e worked out at 4.954%. Besides, the CMK %inh with CMK came to 1.246%. Further, the CHRF288-11 %inh with CHRF288-11 was 2.923%. In the experiment on U937, the U937 %inh was determined as 2.504%. Also, in the experiment on CMS, the CMS %inh was 3.056%. The ML-2 %inh in the experiment with ML-2 was found to be 0.3724%.
With `CC1=C(C(=O)Nc2cc(Cl)c3[nH]ncc3c2)C(c2ccc(C(F)(F)F)cc2)CC(=O)N1` (stereo not shown) [SJ000573181-1, SD204573-088A4], the MV4-11 %inh in the experiment with MV4-11 amounted to 31.1%. The MOLM-13 %inh in the experiment on MOLM-13 was 4.804%. In the experiment with M07e, the M07e %inh is listed as 13.65%. Further, the CMK %inh in the experiment on CMK is 54.4%. Further, the CHRF288-11 %inh in the experiment on CHRF288-11 is 20.3%. In addition, the U937 %inh in the experiment with U937 turned out to be 8.409%. Moreover, in the experiment on CMS, the CMS %inh was determined as 8.733%. Besides, the ML-2 %inh with ML-2 is 13.01%.
Take `COc1cccc(-n2ncc3c(N/N=C/c4ccc(C(=O)NCCN(C)C)cc4)ncnc32)c1` [SJ000573155-1, U16945/190/1]: in the experiment on MV4-11, the MV4-11 %inh is 45.9%. Besides, the MOLM-13 %inh in the experiment with MOLM-13 was determined as 33.75%. The M07e %inh in the experiment on M07e is listed as 23.03%. In the experiment with CMK, the CMK %inh is 38.62%. For the same compound, the CHRF288-11 %inh in the experiment with CHRF288-11 was found to be 128.6%. Moreover, the U937 %inh in the experiment with U937 is given as 26.01%. Also, the CMS %inh in the experiment on CMS was determined as 51.58%. For the same compound, the ML-2 %inh with ML-2 is reported as 12.67%.
Take `CNCCCn1cc(C2=C(c3cn(C)c4ccccc34)C(=O)NC2=O)c2ccccc21` [SJ000581176-1]: the MV4-11 %inh in the experiment on MV4-11 stood at 44.21%. Besides, the MOLM-13 %inh in the experiment on MOLM-13 was found to be 86.21%. In the experiment with M07e, the M07e %inh is 23.08%. Besides, the CMK %inh in the experiment on CMK was 37.79%. The CHRF288-11 %inh with CHRF288-11 was found to be 23.82%. Moreover, the U937 %inh in the experiment with U937 was determined as 9.304%. The CMS %inh with CMS is listed as 6.195%. In the experiment with ML-2, the ML-2 %inh is given as 2.284%.
For the compound `CN1CCN(Cc2ccc(-c3cc4ncnc(Nc5ccc(OCc6cccc(F)c6)c(Cl)c5)c4s3)o2)CC1` [SJ000573089-1, U17540/68/2], in the experiment with MV4-11, the MV4-11 %inh is 5.617%. Besides, in the experiment on MOLM-13, the MOLM-13 %inh amounted to 4.975%. Also, the M07e %inh in the experiment on M07e was -2.246%. In addition, the CMK %inh in the experiment on CMK stood at 14.44%. Moreover, the CHRF288-11 %inh in the experiment on CHRF288-11 was found to be 89.11%. Besides, the U937 %inh with U937 turned out to be 9.435%. The CMS %inh in the experiment with CMS is 6.304%. The ML-2 %inh in the experiment with ML-2 is recorded as -0.8811%.
Consider `CC(C)(C)C(=O)Oc1ccc(S(=O)(=O)Nc2ccccc2C(=O)NCC(=O)O)cc1` [SJ000556638-3, SIVELESTAT SODIUM SALT], for which the MV4-11 %inh in the experiment on MV4-11 (MV4-11 %inh, 10 µM) is given as -1.916%. In addition, the MOLM-13 %inh in the experiment with MOLM-13 (MOLM-13 %inh, 10 µM) was -1.044%. In addition, the M07e %inh in the experiment with M07e (M07e %inh, 10 µM) is 0.5204%. Also, the CMK %inh with CMK (CMK %inh, 10 µM) is given as -2.417%. The CHRF288-11 %inh with CHRF288-11 (CHRF288-11 %inh, 10 µM) is listed as -1.426%. Moreover, the U937 %inh with U937 (U937 %inh, 10 µM) is on record as -0.2709%. Besides, the CMS %inh in the experiment on CMS (CMS %inh, 10 µM) was -1.314%. Moreover, the ML-2 %inh in the experiment with ML-2 (ML-2 %inh, 10 µM) was found to be 0.7785%.
On to `O=S(=O)(CCOCc1ccc(-c2ccc3ncnc(Nc4ccc(OCc5cccc(F)c5)c(Cl)c4)c3c2)o1)c1ccccc1` [SJ000573116-1, U15872/4/1], for which the MV4-11 %inh in the experiment with MV4-11 is reported as 2.149%. In addition, the MOLM-13 %inh in the experiment with MOLM-13 is recorded as -1.247%. In the experiment on M07e, the M07e %inh is -2.095%. For the same compound, the CMK %inh in the experiment on CMK is listed as -5.52%. In addition, the CHRF288-11 %inh in the experiment with CHRF288-11 is -0.6594%. The U937 %inh in the experiment on U937 is -1.869%. Also, the CMS %inh in the experiment with CMS came to 1.936%. Also, the ML-2 %inh in the experiment on ML-2 is -0.1863%.
Take `CC(C)c1ccc(Nc2nccc(-c3cnn4ncccc34)n2)cc1` [SJ000573192-1, U16419/190/2]: the MV4-11 %inh in the experiment with MV4-11 is listed as 84.54%. In the experiment with MOLM-13, the MOLM-13 %inh was determined as 111.4%. Further, the M07e %inh in the experiment with M07e is reported as 49.73%. In addition, in the experiment on CMK, the CMK %inh turned out to be 58.79%. In addition, the CHRF288-11 %inh in the experiment with CHRF288-11 was 27.16%. Also, the U937 %inh with U937 worked out at 82.47%. In the experiment with CMS, the CMS %inh is on record as 101.8%. In the experiment with ML-2, the ML-2 %inh amounted to 59.67%.
Consider `NC(=O)c1ccc(-c2nc(-c3ccc4c(c3)OCO4)c(-c3ccccn3)[nH]2)cc1` [SJ000574283-1, SB-431542 | SB431542], for which the MV4-11 %inh in the experiment with MV4-11 is 0.325%. Also, in the experiment with MOLM-13, the MOLM-13 %inh is 3.22%. Moreover, the M07e %inh in the experiment with M07e is on record as -4.824%. Further, the CMK %inh in the experiment with CMK was -2.116%. In addition, the CHRF288-11 %inh in the experiment with CHRF288-11 was -7.63%. The U937 %inh in the experiment with U937 was -2.319%. The CMS %inh with CMS was 0.4519%. Besides, the ML-2 %inh in the experiment with ML-2 amounted to 0.07602%.
